Results: PMC8049054, “Systematic Assessment of Fragment Identification for Multitarget Drug Design” (Chemmedchem, 2021)

Tested on: T1, soluble epoxide hydrolase (sEH)
T1 construct: For the expression of sEH-H and sEH-Fl transformed E.coli BL21 (DE3) cells were grown in 5052; made in house; host or cells: E. coli BL21 (DE3)
Experiment: Differential scanning fluorimetry (DSF) screen on sEH
Format: binding
Settings: 500 μM fragment, mean of duplicates
Text: For the primary screen of this fragment library, we employed differential scanning fluorimetry (DSF, also known as thermal shift). DSF is generally applicable to a large panel of protein targets and provides a robust, low‐cost screening technology for fragment‐based approaches. ^[20] All five proteins of our interest are soluble and were recombinantly expressed in Escherichia coli. We performed an initial fragment screen on all five targets by DSF. The use of a uniform screening method for all targets ensured consistent data and provided the opportunity to identify false positive hits which interfered with the screening technology. The conditions of the DSF assay were optimized for the desired screening and validated with reference compounds (Table S1 in the Supporting Information). Compounds causing a positive thermal shift ΔT m≥1.0 °C were considered as active.
DSF measurement of the PDFL (single concentration of 500 μM, duplicates, 96‐well format) on the five proteins retrieved 19 fragment hits on sEH, 28 on LTA4H, 12 on 5‐LOX, 16 on RXRα, and 14 on FXR, respectively. Melting point distributions of the screening library for all five targets are depicted in Figure 2. Amongst the hits, three compounds (Table S2) gave a positive signal on all five proteins likely qualifying them as pan assay interference compounds (PAINS). ^[21] Fragments binding to multiple targets (Scheme 1) were identified for seven out of ten target combinations (Figure 2, Table 1). Among them, fragments 4, 6, 7, and 9 match previously identified privileged scaffolds for fatty acid mimetics. ^[14] […] Active ligands containing N‐phenylbenzamide 6 and the N‐phenylbenzylamine 7 have been described for four of the protein targets. Furthermore, indole, which has been characterized as a privileged heterocycle for fatty acid mimetics, ^[14] is present in fragments 5 and 10. Dual 5‐LOX/RXR ligand 1 was present in 5‐LOX inhibitors, while dual FXR/LTA4H modulator 3 is found among known FXR ligands. Fragments 2 (sEH/5‐LOX) and 8 (LTA4H/RXR) are novel scaffolds not appearing in known ligands of any of the five targets.
Figure S3: SDS page of the purified proteins (proteins RXRα and FXR after TEV cleavage) using a 14% polyacrylamide gel, which was stained with coomassi. Precision Plus Protein™ Unstained Protein Standard s (Bio-Rad Laboratories, Inc. ) was used […]
All experiments were performed as duplicates using MicroAmp fast 96 -well plates. Each plate contained 80 different compound wells and 16 DMSO control wells. First 0.8 µl of a 25 mM Preswick Library Fragment dilution in DMSO or pure DMSO were placed in each of the well (final concentration 500 µM). Then 39.2 µl of the master mi x (containing protein, Triton x -100, SYPRO® Orange Protein Gel Stain and buffer that corresponds to the tested protein) were added.
Table S4: Final concentrations in DSF experiments:
Protein Final concentrations under screening conditions […]
glycerol, 0.01% (W/V) Triton X-100, 2.05 % DMSO and 2.5x SYPRO® with a pH = 7 […]
The measurements were performed using a iCycler iQ™ Single -Color Real Time PCR device with a heat rate of 1 °C per min, an excitation wavelength of 490 nm and an emission wavelength of 570 nm. The first derivation calculated by MyiQ Op tical Software 1.0 was analyzed using Microsoft Office Excel 2013 by comparing the maxima. A shift of 1 °C (in case of 5 -LOX 0.9°C) or more compared to the DMSO control were assumed as potentially binding of the fragment.
(1 picture or pasted object on this page, not shown here)

| Compound | DSF/ΔT m sEH [°C] |
| --- | --- |
| c1ccc(N2CCNCC2)nc1 [Compound 1] | 0.0±0.0 |
| Cc1cc(=O)n(-c2ccc(C)c(C)c2)[nH]1 [Compound 2] | 2.2±0.0 |
| CCCCOc1cc(C(=O)OC)ccc1N [Compound 3] | 0.0±0.0 |
| Cc1ccccc1C(=O)Nc1ccccc1 [Compound 6] | 2.0±0.0 |

The remaining lines, values ahead:

| DSF/ΔT m sEH [°C] | Compound |
| --- | --- |
| 0.0±0.0 | Oc1ccc(Cc2ccccc2)cc1 [Compound 4] |
| 0.0±0.0 | Oc1ccc2cc[nH]c2c1 [Compound 5] |
| 1.0±0.0 | CCN(Cc1ccccc1)c1ccccc1 [Compound 7] |
| 1.0±0.0 | Oc1ccc(-c2ccc(F)cc2F)cc1 [Compound 9] |
| 0.6±0.7 | Fc1ccc(-c2c[nH]c3ccccc23)cc1 [Compound 10] |
